Here are results for three molecules from patent US5831026A, “Process for purifying factor VIII” (Pharmacia & Upjohn AB, priority 1994, dated 1998).

The subject of experiment [1] is metal-dependent proteases. Briefly: Protease assay with resorufin-labeled casein in harvest solution (conditioned medium). Format: biochemical, Chinese Hamster. Particulars: for Mean absorbance corrected: blank subtracted. The method, then: The method chosen was a protease assay with casein which was resorufin-labeled. By treatment with proteases, resorufin-labeled peptides are released from the casein. The concentration of these resorufin-labeled peptides in the supernatant is a measure of the proteolytic activity present. The test sample was incubated at 37° C. for a period of time which was dependent upon the sample at issue. The absorption wave-length chosen was 574 run throughout the tests. […]
Preincubation of the conditioned medium with or without EDTA was conducted at 37° C. for 2 h. After the addition of substrate, further incubation was carried out for 17 h. The pH in the incubation mixture was 7.5.
Absorbance corrected, refers to the absorption after subtraction of the blank value.
Conditioned medium (containing human serum albumin) was clarified and imidazole subsequently added in an amount ranging from 3.6 mM up to 360 mM.
Conditioned medium (containing human serum albumin) was clarified and histidine subsequently added in an amount ranging from 0.14 mM to 13.6 mM.

For experiment [2], the system named is factor VIII. Briefly: Activity of factor VIII after addition of complexing agent to eluted solution from SP Sepharose FF, COATEST chromogenic assay. The conditions noted are these: Example 8; for Factor VIII activity (%): 0 h without additive = 100. Format: biochemical. The method, then: Tests without EDTA present were carried out for comparison.
A conditioned medium (containing human serum albumin) from a different harvest than the previous Examples, was clarified and buffered with NH4 Ac. […] After elution, various amounts of EDTA were added to the resulting solution. Tests without EDTA present were carried out for comparison. The procoagulant activity of factor VIII was determined after storage at ambient temperature for up to 246 hours, in accordance to the procedure described in Example 5.
A conditioned medium (containing human serum albumin) from a different harvest than the previous Examples, was clarified and buffered with NH4 Ac. […] After elution, various amounts of EDTA were added to the resulting solution. Tests without EDTA present were carried out for comparison. The procoagulant activity of factor VIII was determined after storage at ambient temperature for up to 28 hours, in accordance to the procedure described in Example 5.
A conditioned medium (containing human serum albumin) from a different harvest than the previous Examples, was clarified and buffered with NH4 Ac. The resulting solution was loaded onto a column containing SP SEPHAROSE® FF. This cation-exchange chromatography step was performed at 10° C. […] After elution, EDTA or 1,10-Phenanthroline were added to the resulting solution.

Setting [3] is: 5 mM Phenanthroline, incubation 4.5 h ambient.
Setting [4] is: 5 mM Phenanthroline, incubation 7.5 h ambient.
Setting [5] is: 5 mM Phenanthroline, incubation 24 h ambient.
The mark [6] stands for this setting: 11 mM Phenanthroline, incubation 4.5 h ambient.
The mark [7] stands for this setting: 11 mM Phenanthroline, incubation 7.5 h ambient.
Setting [8] is: 11 mM Phenanthroline, incubation 24 h ambient.

Regarding `N[C@@H](Cc1c[nH]cn1)C(=O)O` [Histidine, L-histidine], the Mean absorbance in experiment [1] (0.14 mM histidine) is 2561; in experiment [1] (0.7 mM histidine), 2857; in experiment [1] (1.4 mM histidine) it was 3153; in experiment [1] (7 mM histidine), 1495; in experiment [1] (13.6 mM histidine) it was 1684. In addition, the “Protease activity (%)” value was 79% in experiment [1] (0.14 mM histidine); 94% in experiment [1] (0.7 mM histidine); 108% in experiment [1] (1.4 mM histidine); 26% in experiment [1] (7 mM histidine); 35% in experiment [1] (13.6 mM histidine). Besides, the Mean absorbance corrected came out at 1591 in experiment [1] (0.14 mM histidine); 1887 in experiment [1] (0.7 mM histidine); 2183 in experiment [1] (1.4 mM histidine); 525 in experiment [1] (7 mM histidine); 714 in experiment [1] (13.6 mM histidine).
For `c1cnc2c(c1)ccc1cccnc12` [Phenanthroline, 1,10-Phenanthroline], the “Factor VIII activity (IU/ml)” value in experiment [2] (setting [3]) worked out at 750 IU/ml; in experiment [2] (setting [4]) it was 964 IU/ml; in experiment [2] (setting [5]) it was 933 IU/ml; in experiment [2] (setting [6]) it was 869 IU/ml; in experiment [2] (setting [7]) it was 996 IU/ml; in experiment [2] (setting [8]), 916 IU/ml. For the same molecule, the “Factor VIII activity (%)” value in experiment [2] (setting [3]) was 84%; in experiment [2] (setting [4]), 109%; in experiment [2] (setting [5]), 105%; in experiment [2] (setting [6]), 98%; in experiment [2] (setting [7]), 112%; in experiment [2] (setting [8]), 103%.
Regarding `c1c[nH]cn1` [imidazole], the Mean absorbance in experiment [1] (3.6 mM imidazole) came out at 2891; in experiment [1] (18 mM imidazole), 2985; in experiment [1] (36 mM imidazole) it was 3190; in experiment [1] (180 mM imidazole), 1258; in experiment [1] (360 mM imidazole), 1143. In addition, the “Protease activity (%)” value in experiment [1] (3.6 mM imidazole) came out at 95%; in experiment [1] (18 mM imidazole), 100%; in experiment [1] (36 mM imidazole), 110%; in experiment [1] (180 mM imidazole) it was 14%; in experiment [1] (360 mM imidazole) it was 9%. Moreover, the Mean absorbance corrected amounted to 1921 in experiment [1] (3.6 mM imidazole); 2015 in experiment [1] (18 mM imidazole); 2220 in experiment [1] (36 mM imidazole); 288 in experiment [1] (180 mM imidazole); 173 in experiment [1] (360 mM imidazole).
